Measurements as given in patent publication US12570659B2, “Bicyclic heteroaryl compounds useful as IRAK4 inhibitors” (BRISTOL-MYERS SQUIBB COMPANY, priority 2019, dated 2026).

Legend:
JAK3 kinase = JAK3 kinase (Homo sapiens (Human), UniProt P52333); assay: JAK3 Homogeneous Time Resolved Fluorescence (HTRF) Assay; assay type: binding; settings: for IC50: competition binding with fluorescein-labeled ATP competitive probe; for Ratio of JAK3 IC50 to IRAK4 IC50: selectivity for IRAK4 over JAK3
Outline: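 IC50 reflects displacement of a fluorescein-labeled ATP-site probe (at its Kd) from 1 nM tagged JAK3, detected via 0.2 nM Tb anti-His or anti-GST antibody. One-hour incubation; 495 and 520 nm emission ratios, background-subtracted, normalized to maximum signal; 11-point percent inhibition, 4-parameter logistic.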

IRAK4 = IRAK4 (Homo sapiens (Human), UniProt Q9NWZ3); assay: IRAK4 Inhibition Assay; assay type: biochemical; settings: ATP 500 μM; IRAK4 0.6 nM; 60 min room temperature
Chain of IRAK4 (Q9NWZ3 whole entry, species assumed): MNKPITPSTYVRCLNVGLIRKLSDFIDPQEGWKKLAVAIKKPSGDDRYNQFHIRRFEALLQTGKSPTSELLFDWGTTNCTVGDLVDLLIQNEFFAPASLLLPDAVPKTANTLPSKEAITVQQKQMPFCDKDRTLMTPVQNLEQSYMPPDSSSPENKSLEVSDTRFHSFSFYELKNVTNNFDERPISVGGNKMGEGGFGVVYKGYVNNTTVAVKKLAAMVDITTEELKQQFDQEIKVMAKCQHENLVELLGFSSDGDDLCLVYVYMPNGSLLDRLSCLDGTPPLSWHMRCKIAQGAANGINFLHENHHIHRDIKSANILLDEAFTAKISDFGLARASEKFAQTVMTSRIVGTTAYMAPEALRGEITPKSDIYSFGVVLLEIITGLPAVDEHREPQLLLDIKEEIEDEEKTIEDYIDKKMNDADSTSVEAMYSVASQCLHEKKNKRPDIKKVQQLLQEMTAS
Outline: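 Phosphorylated and unphosphorylated fluorescent substrate were resolved by microfluidic electrophoresis after termination with 35 mM EDTA. The room-temperature kinase reaction lasted 60 min after IRAK4, substrates and test compound were combined; vehicle-only defined 0% and no-enzyme 100% inhibition.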

[1] = system: TLR2 agonist-stimulated IL-6 in human whole blood; assay: IRAK4 Whole Blood Assay; assay type: cell-based; settings: lipoteichoic acid 10 μg/mL, 5 hours, IL-6 levels
Experimental: Human whole blood containing the anti-coagulant ACD-A was plated in 384-well plate (25 μL/well) and incubated with compounds for 60 minutes at 37° C. in a 5% CO2 incubator. The blood was stimulated with a TLR2 agonist, 10 μg/mL final concentration of lipoteichoic acid (Invivogen, San Diego, CA) in 25 μL RPMI (Gibco) for 5 hours in a 5% CO2 incubator. At the end of the incubation, plates were centrifuged at 2300 rpm for 5 minutes. Supernatants were harvested and analyzed for IL-6 levels by Flow Cytometry beads assay (BD Biosciences, San Jose, CA).

Chain of JAK3 kinase (P52333 whole entry): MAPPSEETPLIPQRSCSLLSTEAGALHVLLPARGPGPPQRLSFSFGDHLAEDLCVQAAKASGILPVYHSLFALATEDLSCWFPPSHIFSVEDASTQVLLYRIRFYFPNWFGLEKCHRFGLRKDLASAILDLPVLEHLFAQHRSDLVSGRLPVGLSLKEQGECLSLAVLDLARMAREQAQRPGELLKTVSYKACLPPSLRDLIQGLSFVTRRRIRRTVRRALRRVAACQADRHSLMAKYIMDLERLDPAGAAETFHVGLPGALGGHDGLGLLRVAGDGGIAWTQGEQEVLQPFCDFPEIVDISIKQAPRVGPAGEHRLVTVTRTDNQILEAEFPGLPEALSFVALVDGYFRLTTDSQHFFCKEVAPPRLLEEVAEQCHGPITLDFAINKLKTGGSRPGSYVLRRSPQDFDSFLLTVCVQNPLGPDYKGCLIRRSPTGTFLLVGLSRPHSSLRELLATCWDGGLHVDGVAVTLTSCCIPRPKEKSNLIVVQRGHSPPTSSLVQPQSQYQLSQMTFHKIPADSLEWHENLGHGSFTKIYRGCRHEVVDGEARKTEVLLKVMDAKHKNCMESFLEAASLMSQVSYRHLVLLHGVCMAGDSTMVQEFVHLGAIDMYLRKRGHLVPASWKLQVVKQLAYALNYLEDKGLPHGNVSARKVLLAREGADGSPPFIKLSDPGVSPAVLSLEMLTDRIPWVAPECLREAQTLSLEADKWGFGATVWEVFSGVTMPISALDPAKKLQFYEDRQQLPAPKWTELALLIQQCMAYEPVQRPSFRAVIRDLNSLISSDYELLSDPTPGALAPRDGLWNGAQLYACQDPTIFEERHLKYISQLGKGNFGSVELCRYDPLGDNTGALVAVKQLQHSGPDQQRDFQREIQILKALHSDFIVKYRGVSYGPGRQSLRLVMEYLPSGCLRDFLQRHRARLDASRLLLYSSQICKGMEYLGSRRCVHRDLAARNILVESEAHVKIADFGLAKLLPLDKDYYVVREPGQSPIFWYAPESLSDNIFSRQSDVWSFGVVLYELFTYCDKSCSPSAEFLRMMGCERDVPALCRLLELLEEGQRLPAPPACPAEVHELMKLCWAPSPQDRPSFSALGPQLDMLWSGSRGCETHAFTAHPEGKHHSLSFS

| SMILES | IC50 (JAK3 kinase) | Ratio of JAK3 IC50 to IRAK4 IC50 (JAK3 kinase) | IC50 (IRAK4) | IC50 [1] |
| --- | --- | --- | --- | --- |
| CC(C)Nc1c(C(=O)NC[C@@H](F)C(C)(C)O)cnn2cc(-c3cn[nH]c3)cc12 [Example 34, (R)—N-(2-fluoro-3-hydroxy-3-methylbutyl)-4-(isopropylamino)-6-(1H-pyrazol-4-yl) pyrrolo[1,2-b]pyridazine-3-carboxamide] | > 10000 nM | >1493 | 6.7 nM | > 10000 nM |
| CC(=O)N[C@H]1CC[C@H](NC(=O)c2cnn3cc(-c4ccc(C#N)cc4)cc3c2NC(C)C)CC1 [Example 81, N-((1r,4r)-4-acetamidocyclohexyl)-6-(4-cyanophenyl)-4-(isopropylamino)pyrrolo[1,2-b]pyridazine-3-carboxamide] | > 50000 nM | >4167 | 12 nM | > 20000 nM |
| CC(C)Nc1c(C(=O)NC[C@@H](F)C(C)(C)O)cnn2cc(-c3ccc(C#N)cc3)cc12 [Example 1, (R)-6-(4-cyanophenyl)-N-(2-fluoro-3-hydroxy-3-methylbutyl)-4-(isopropylamino)pyrrolo[1,2-b]pyridazine-3-carboxamide] | 20000 nM | 1667 | 12 nM | > 10000 nM |
| CC(C)Nc1c(C(=O)NCCC(C)(C)O)cnn2cc(-c3ccncc3)cc12 [Example 62, N-(3-hydroxy-3-methylbutyl)-4-(isopropylamino)-6-(pyridin-4-yl)pyrrolo[1,2-b]pyridazine-3-carboxamide] | > 50000 nM | >5952 | 8.4 nM | 2010 nM |
| CC(C)Nc1c(C(=O)NCCN2CCOCC2)cnn2cc(-c3ccncc3)cc12 [Example 63, 4-(isopropylamino)-N-(2-morpholinoethyl)-6-(pyridin-4-yl) pyrrolo[1,2-b]pyridazine-3-carboxamide] | > 50000 nM | >4167 | 12 nM | 2000 nM |
| CC(=O)N[C@H]1CC[C@H](NC(=O)c2cnn3cc(-c4cnccc4C)cc3c2NC(C)C)CC1 [Example 70, N-((1r,4r)-4-acetamidocyclohexyl)-4-(isopropylamino)-6-(4-methylpyridin-3-yl)pyrrolo[1,2-b] pyridazine-3-carboxamide] | > 50000 nM | >3571 | 14 nM | > 10000 nM |
| CC(=O)N[C@H]1CC[C@H](NC(=O)c2cnn3cc(-c4ccncc4)cc3c2NC(C)C)CC1 [Example 50, N-((1r,4r)-4-acetamidocyclohexyl)-4-(isopropylamino)-6-(pyridin-4-yl)pyrrolo[1,2-b]pyridazine-3-carboxamide] | ~39000 nM | ~18571 | 2.1 nM | 900 nM |
| CC(=O)N[C@H]1CC[C@H](NC(=O)c2cnn3cc(-c4cccnc4)cc3c2NC(C)C)CC1 [Example 48, N-((1r,4r)-4-acetamidocyclohexyl)-4-(isopropylamino)-6-(pyridin-3-yl)pyrrolo[1,2-b]pyridazine-3-carboxamide] | > 50000 nM | >8475 | 5.9 nM | 850 nM |
| CC(C)Nc1c(C(=O)NC[C@@H](F)C(C)(C)O)cnn2cc(-c3cncs3)cc12 [Example 55, (R)—N-(2-fluoro-3-hydroxy-3-methylbutyl)-4-(isopropylamino)-6-(thiazol-5-yl)pyrrolo[1,2-b]pyridazine-3-carboxamide] | > 50000 nM | >12821 | 3.9 nM | > 10000 nM |
| CC(=O)N[C@H]1CC[C@H](NC(=O)c2cnn3cc(-c4ccncc4C)cc3c2NC(C)C)CC1 [Example 56, N-((1r,4r)-4-acetamidocyclohexyl)-4-(isopropylamino)-6-(3-methylpyridin-4-yl)pyrrolo[1,2-b]pyridazine-3-carboxamide] | > 50000 nM | >31250 | 1.6 nM | 810 nM |
| CC(C)Nc1c(C(=O)NC[C@@H](F)C(C)(C)O)cnn2cc(-c3cccnc3)cc12 [Example 3, (R)—N-(2-fluoro-3-hydroxy-3-methylbutyl)-4-(isopropylamino)-6-(pyridin-3-yl)pyrrolo[1,2-b]pyridazine-3-carboxamide] | 31000 nM | 1938 | 16 nM | 9500 nM |
| CC(=O)N[C@H]1CC[C@H](NC(=O)c2cnn3cc(-c4ccncc4)nc3c2NC(C)C)CC1 [Example 108, N-((1r,4r)-4-acetamidocyclohexyl)-8-(isopropylamino)-2-(pyridin-4-yl)imidazo[1,2-b]pyridazine-7-carboxamide] | ~49000 nM | ~4455 | 11 nM | 890 nM |
| CC(C)Nc1c(C(=O)N[C@H]2CC[C@H](NC(=O)CO)CC2)cnn2cc(-c3ccncc3F)cc12 [Example 68, 6-(3-fluoropyridin-4-yl)-N-((1r,4r)-4-(2-hydroxyacetamido)cyclohexyl)-4-(isopropylamino)pyrrolo[1,2-b]pyridazine-3-carboxamide] | > 50000 nM | >7692 | 6.5 nM | 4100 nM |
| CC(C)Nc1c(C(=O)N[C@H]2CC[C@H](c3nc[nH]n3)CC2)cnn2cc(-c3ccncc3F)cc12 [Example 93, N-((1r,4r)-4-(1H-1,2,4-triazol-3-yl)cyclohexyl)-6-(3-fluoropyridin-4-yl)-4-(isopropylamino)pyrrolo[1,2-b]pyridazine-3-carboxamide] | > 50000 nM | >21739 | 2.3 nM | 1040 nM |
| CC(C)Nc1c(C(=O)N[C@H]2CC[C@H](c3nc[nH]n3)CC2)cnn2cc(-c3ccc(F)nc3)cc12 [Example 92, N-((1r,4r)-4-(1H-1,2,4-triazol-3-yl)cyclohexyl)-6-(6-fluoropyridin-3-yl)-4-(isopropylamino)pyrrolo[1,2-b]pyridazine-3-carboxamide] | > 50000 nM | >5000 | 10 nM | 6970 nM |
| CC(C)Nc1c(C(=O)N[C@H]2CC[C@H](C(=O)N3CCOCC3)CC2)cnn2cc(-c3ccncc3F)cc12 [Example 84, 6-(3-fluoropyridin-4-yl)-4-(isopropylamino)-N-((1r,4r)-4-(morpholine-4-carbonyl)cyclohexyl)pyrrolo[1,2-b]pyridazine-3-carboxamide] | > 50000 nM | >18519 | 2.7 nM | 1040 nM |
| CC(C)Nc1c(C(=O)NCCC(C)(C)O)cnn2cc(-c3ccncc3F)nc12 [Example 109, 2-(3-fluoropyridin-4-yl)-N-(3-hydroxy-3-methylbutyl)-8-(isopropylamino)imidazo[1,2-b]pyridazine-7-carboxamide] | > 50000 nM | >4167 | 12 nM | > 20000 nM |
| CC(=O)N[C@H]1CC[C@H](NC(=O)c2cnn3cc(-c4ccncc4F)cc3c2NC(C)C)CC1 [Example 65, N-((1r,4r)-4-acetamidocyclohexyl)-6-(3-fluoropyridin-4-yl)-4-(isopropylamino)pyrrolo[1,2-b] pyridazine-3-carboxamide] | > 50000 nM | >31250 | 1.6 nM | 360 nM |
| COC(=O)N[C@H]1CC[C@H](NC(=O)c2cnn3cc(-c4ccncc4)cc3c2NC(C)C)CC1 [Example 51, methyl ((1r,4r)-4-(4-(isopropylamino)-6-(pyridin-4-yl)pyrrolo[1,2-b]pyridazine-3-carboxamido)cyclohexyl)carbamate] | > 50000 nM | >17857 | 2.8 nM | 1760 nM |
| Cc1cc(F)ncc1-c1cc2c(NC(C)C)c(C(=O)N[C@H]3CC[C@H](c4nc[nH]n4)CC3)cnn2c1 [Example 91, N-((1r,4r)-4-(1H-1,2,4-triazol-3-yl)cyclohexyl)-6-(6-fluoro-4-methylpyridin-3-yl)-4-(isopropylamino)pyrrolo[1,2-b]pyridazine-3-carboxamide] | > 50000 nM | >9615 | 5.2 nM | 1460 nM |
| CC(C)Nc1c(C(=O)NC2CCN(S(C)(=O)=O)CC2)cnn2cc(-c3ccncc3F)nc12 [Example 111, 2-(3-fluoropyridin-4-yl)-8-(isopropylamino)-N-(1-(methylsulfonyl)piperidin-4-yl)imidazo[1,2-b]pyridazine-7-carboxamide] | > 50000 nM | >3846 | 13 nM | 3730 nM |
| CC(C)Nc1c(C(=O)N[C@H]2CC[C@H](C(N)=O)CC2)cnn2cc(-c3ccncc3F)cc12 [Example 89, N-((1r,4r)-4-carbamoylcyclohexyl)-6-(3-fluoropyridin-4-yl)-4-(isopropylamino) pyrrolo[1,2-b]pyridazine-3-carboxamide] | > 50000 nM | >13158 | 3.8 nM | 1360 nM |
